Experimental data taken from ChEMBL document CHEMBL5291721, “A preclinical secondary pharmacology resource illuminates target-adverse drug reaction associations of marketed drugs” (Nat Commun, 2023).

Experiments:
Endothelin-1 receptor = target: T1, Endothelin-1 receptor (Homo sapiens, UniProt P25101)
T1 sequence (P25101 whole entry): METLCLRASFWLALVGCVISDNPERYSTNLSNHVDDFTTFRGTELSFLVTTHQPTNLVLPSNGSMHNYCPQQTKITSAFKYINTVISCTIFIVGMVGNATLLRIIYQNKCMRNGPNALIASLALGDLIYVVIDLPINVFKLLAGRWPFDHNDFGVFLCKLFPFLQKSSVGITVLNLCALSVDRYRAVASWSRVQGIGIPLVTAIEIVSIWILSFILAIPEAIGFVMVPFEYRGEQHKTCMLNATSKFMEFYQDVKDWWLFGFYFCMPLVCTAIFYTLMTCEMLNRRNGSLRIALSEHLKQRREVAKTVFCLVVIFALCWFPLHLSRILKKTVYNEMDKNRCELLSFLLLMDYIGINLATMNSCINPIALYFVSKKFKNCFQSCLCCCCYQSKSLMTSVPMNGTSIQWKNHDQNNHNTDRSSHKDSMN

Melanocortin receptor 4 = Melanocortin receptor 4 (Homo sapiens, UniProt P32245)
Chain of Melanocortin receptor 4 (P32245 whole entry): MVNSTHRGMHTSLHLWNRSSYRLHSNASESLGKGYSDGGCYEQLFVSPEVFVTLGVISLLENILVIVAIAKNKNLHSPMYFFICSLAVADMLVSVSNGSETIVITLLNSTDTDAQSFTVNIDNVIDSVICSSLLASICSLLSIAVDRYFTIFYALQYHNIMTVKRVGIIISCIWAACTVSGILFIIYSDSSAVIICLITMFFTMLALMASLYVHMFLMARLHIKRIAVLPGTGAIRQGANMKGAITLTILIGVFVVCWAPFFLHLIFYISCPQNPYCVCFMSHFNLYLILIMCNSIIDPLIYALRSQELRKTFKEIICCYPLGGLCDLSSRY

Vasopressin V1a receptor = Vasopressin V1a receptor (Homo sapiens, UniProt P37288)
Chain of Vasopressin V1a receptor (P37288 whole entry): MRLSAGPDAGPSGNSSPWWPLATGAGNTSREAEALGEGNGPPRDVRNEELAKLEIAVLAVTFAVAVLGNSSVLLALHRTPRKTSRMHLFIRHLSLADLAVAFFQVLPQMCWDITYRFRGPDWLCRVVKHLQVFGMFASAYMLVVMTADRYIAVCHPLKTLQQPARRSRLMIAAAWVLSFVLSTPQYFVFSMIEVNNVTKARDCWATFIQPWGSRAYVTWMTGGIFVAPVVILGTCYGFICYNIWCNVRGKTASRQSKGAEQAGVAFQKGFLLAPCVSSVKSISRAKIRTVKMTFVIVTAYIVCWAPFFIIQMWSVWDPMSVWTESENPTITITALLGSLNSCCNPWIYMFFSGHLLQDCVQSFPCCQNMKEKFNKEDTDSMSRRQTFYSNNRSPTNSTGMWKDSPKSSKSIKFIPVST

[1] = target: Prostaglandin G/H synthase 1 (Homo sapiens, UniProt P23219); assay type: functional
Chain of Prostaglandin G/H synthase 1 (P23219 whole entry): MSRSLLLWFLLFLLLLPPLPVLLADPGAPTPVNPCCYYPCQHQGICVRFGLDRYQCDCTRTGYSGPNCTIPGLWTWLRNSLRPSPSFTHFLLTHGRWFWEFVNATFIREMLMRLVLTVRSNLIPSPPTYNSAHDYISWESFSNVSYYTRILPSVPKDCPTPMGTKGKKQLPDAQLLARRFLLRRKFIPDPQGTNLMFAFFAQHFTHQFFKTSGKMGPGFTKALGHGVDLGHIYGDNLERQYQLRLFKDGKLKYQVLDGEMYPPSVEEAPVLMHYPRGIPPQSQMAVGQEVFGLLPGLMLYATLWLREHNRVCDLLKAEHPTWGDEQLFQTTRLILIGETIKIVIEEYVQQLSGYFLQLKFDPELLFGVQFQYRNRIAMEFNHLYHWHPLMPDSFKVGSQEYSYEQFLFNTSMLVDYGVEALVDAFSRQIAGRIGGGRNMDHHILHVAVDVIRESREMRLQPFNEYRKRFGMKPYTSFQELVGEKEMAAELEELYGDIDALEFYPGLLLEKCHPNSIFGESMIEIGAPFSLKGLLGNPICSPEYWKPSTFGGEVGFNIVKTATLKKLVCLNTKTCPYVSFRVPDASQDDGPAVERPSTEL

[2] = target: cGMP-inhibited 3',5'-cyclic phosphodiesterase 3A (Homo sapiens, UniProt Q14432); assay type: functional
Chain of cGMP-inhibited 3',5'-cyclic phosphodiesterase 3A (Q14432 whole entry): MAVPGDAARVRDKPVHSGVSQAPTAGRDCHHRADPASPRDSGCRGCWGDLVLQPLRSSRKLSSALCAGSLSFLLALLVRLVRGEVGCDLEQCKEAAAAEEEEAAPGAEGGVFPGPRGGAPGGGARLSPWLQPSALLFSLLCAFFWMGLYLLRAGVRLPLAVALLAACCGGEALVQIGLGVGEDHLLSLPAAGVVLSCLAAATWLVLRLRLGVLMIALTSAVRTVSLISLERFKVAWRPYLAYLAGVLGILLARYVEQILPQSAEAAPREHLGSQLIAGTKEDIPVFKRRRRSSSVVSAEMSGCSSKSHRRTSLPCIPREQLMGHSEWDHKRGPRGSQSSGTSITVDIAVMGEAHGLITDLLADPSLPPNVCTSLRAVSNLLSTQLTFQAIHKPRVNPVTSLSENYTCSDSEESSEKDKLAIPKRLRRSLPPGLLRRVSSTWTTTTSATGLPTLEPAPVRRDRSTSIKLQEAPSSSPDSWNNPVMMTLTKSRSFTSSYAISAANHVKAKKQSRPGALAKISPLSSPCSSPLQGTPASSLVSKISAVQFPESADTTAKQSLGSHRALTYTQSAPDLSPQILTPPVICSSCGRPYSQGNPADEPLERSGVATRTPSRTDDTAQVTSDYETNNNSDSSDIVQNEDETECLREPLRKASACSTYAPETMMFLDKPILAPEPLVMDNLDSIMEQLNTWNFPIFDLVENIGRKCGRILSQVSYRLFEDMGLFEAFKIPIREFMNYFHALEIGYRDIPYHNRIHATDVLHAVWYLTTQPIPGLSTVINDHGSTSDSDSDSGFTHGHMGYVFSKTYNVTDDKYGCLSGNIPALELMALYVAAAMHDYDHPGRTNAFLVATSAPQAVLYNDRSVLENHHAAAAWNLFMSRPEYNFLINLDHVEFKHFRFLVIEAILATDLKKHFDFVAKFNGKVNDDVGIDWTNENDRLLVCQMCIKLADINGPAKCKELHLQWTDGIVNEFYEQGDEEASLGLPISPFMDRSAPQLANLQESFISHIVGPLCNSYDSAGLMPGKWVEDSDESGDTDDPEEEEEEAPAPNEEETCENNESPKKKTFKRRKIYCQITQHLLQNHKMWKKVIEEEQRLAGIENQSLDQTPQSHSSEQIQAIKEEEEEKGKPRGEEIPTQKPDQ

Adenosine receptor A3 = target: T2, Adenosine receptor A3 (Homo sapiens, UniProt P0DMS8)
T2 sequence (P0DMS8 whole entry): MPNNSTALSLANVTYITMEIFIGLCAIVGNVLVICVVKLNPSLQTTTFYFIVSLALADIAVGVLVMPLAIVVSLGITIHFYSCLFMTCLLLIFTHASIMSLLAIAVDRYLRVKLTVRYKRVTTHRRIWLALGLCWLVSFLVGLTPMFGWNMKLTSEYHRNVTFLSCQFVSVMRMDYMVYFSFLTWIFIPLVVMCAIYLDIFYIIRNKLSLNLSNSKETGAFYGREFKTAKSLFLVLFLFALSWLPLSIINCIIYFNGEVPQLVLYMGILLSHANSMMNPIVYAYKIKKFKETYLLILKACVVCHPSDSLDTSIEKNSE

[3] = target: T3, Alpha-1A adrenergic receptor (Homo sapiens, UniProt P35348); assay type: functional, cell-based
T3 sequence (P35348 whole entry): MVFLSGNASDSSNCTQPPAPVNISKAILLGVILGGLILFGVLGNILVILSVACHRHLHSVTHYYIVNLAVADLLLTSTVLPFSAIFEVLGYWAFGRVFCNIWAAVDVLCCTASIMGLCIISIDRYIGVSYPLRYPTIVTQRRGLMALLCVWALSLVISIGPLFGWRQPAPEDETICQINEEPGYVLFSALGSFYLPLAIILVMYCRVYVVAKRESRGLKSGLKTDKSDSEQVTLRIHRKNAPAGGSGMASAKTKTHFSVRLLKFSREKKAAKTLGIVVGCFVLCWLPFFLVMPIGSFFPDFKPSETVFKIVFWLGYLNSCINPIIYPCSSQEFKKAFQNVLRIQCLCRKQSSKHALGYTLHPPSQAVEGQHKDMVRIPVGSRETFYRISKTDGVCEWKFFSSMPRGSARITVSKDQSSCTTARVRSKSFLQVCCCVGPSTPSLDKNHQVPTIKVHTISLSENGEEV
Note: assay procedure not described here.

| Structure (SMILES) | AC50 (Endothelin-1 receptor) [µM] | AC50 (Melanocortin receptor 4) [µM] | AC50 (Vasopressin V1a receptor) [µM] | AC50 [1] [µM] | AC50 [2] [µM] | AC50 (Adenosine receptor A3) [µM] | AC50 [3] [µM] |
| --- | --- | --- | --- | --- | --- | --- | --- |
| CC12CC3CC(C)(C1)CC(N)(C3)C2 [MEMANTINE] | > 30 | > 30 | > 30 | – | – | – | – |
| CC(CCc1ccc(O)cc1)NCCc1ccc(O)c(O)c1 (centres undefined) [DOBUTAMINE] | > 30 | > 30 | > 30 | – | – | – | – |
| CCC(=O)O[C@]1(C(=O)SCF)[C@H](C)C[C@H]2[C@@H]3C[C@H](F)C4=CC(=O)C=C[C@]4(C)[C@@]3(F)[C@@H](O)C[C@@]21C [FLUTICASONE PROPIONATE] | > 30 | > 30 | > 30 | > 30 | > 30 | 23.2 | > 30 |
| CC(N)C(O)c1ccccc1 (centres undefined) [PHENYLPROPANOLAMINE] | > 30 | > 30 | > 30 | – | – | – | – |
| CCOC(=O)C1=C(C)NC(C)=C(C(=O)OC)C1c1cccc([N+](=O)[O-])c1 (centres undefined) [NITRENDIPINE] | > 30 | > 30 | > 30 | – | – | – | – |
| OC1(c2ccc(Cl)cc2)c2ccccc2C2=NCCN21 (centres undefined) [MAZINDOL] | > 30 | > 30 | > 30 | – | – | – | – |
| CC(C)NCC(O)c1ccc(O)c(O)c1 (centres undefined) [ISOPROTERENOL] | > 30 | > 30 | > 10 | – | – | – | – |
| CC(C)COCC(CN(Cc1ccccc1)c1ccccc1)N1CCCC1 (centres undefined) [BEPRIDIL] | > 30 | 15.4 | > 30 | – | – | – | – |
| CCC(=O)O[C@H]1CC[C@H]2[C@@H]3CCC4=CC(=O)CC[C@]4(C)[C@H]3CC[C@]12C [TESTOSTERONE PROPIONATE] | – | > 10 | > 10 | – | – | – | – |
| [H]/N=C(/N)N/C(=N/[H])NCCc1ccccc1 [PHENFORMIN] | > 30 | > 30 | > 30 | – | – | – | – |
| CCOC(=O)c1cncn1[C@H](C)c1ccccc1 [ETOMIDATE] | – | > 10 | > 10 | – | – | – | – |
| CN1CCC(=C2c3ccccc3CCc3cccnc32)CC1 [AZATADINE] | – | > 30 | > 30 | – | – | – | – |
| Nc1ncn([C@H]2C[C@H](O)[C@@H](CO)O2)c(=O)n1 [DECITABINE] | – | > 30 | > 30 | – | – | – | – |
